# Data taken from patent publication US9890142B2, “PDE4 inhibitor” (Meiji Seika Pharma Co., Ltd., priority 2013, dated 2018).
# Test system: PDE4
# Experiment: Evaluation of PDE4 inhibition (scintillation proximity assay)
# Type: biochemical
# Conditions: inhibition rate relative to control, test compound at 1 μM
# Description: Test Example 1 Evaluation of PDE4 Inhibition
# The PDE4 inhibitory activity was measured by using scintillation proximity assay (SPA) as follows: one in which a sample compound dissolved in dimethyl sulfoxide was diluted 10-fold with a buffer solution for reaction containing 50 mM Tris-HCl, pH 7.5, 8.3 mM MgCl2, 1.7 mM EDTA and 0.3 mg/mL bovine serum albumin (BSA) was added at 10 μL/well to a 96-well assay plate. Further, PDE4 diluted 750-fold with a buffer solution for reaction was added at 50 μL/well, then [2,8-^3H]-Adenosine-3′,5′-cyclic phosphate triethylammonium salt diluted 1000-fold with a buffer solution for reaction was added at 40 μL/well, and the plate was left standing at room temperature for 120 minutes. Thereafter, a suspension of RNA binding YSi-SPA Beads containing 200 mM ZnSO4 was added at 50 μL/well, and the plate was left standing at room temperature for 15 minutes to adsorb the enzyme reaction product onto the Beads. Thereafter, the radioactivity was measured with a liquid scintillation counter for 96-well plates. When one supplemented with only a buffer solution for reaction without adding the enzyme preparation was used as a blank and one supplemented with the enzyme preparation but supplemented with only dimethyl sulfoxide instead of the sample solution was used as a control, the inhibition rate of the test compound relative to the control was calculated according to the following calculation expression: Inhibition rate (%)={1−(Numeric value from the addition of each sample−Blank value)/(Control value−Blank value)}×100
row,Structure (SMILES),PDE4 inhibitory activity (1 μM (%)) [%]
1,"C[C@H]1CNCCN1c1nc2cc(Cl)cc(Oc3nccs3)c2o1 [Example 77, (S)-5-Chloro-2-(2-methylpiperazin-1-yl)-7-(thiazol-2-yloxy)benzoxazole]",30
2,"C[C@H]1CNCCN1c1nc2cc(Cl)cc(-c3ncc([N+](=O)[O-])s3)c2o1 [Example 78, (S)-5-Chloro-2-(2-methylpiperazin-1-yl)-7-(5-nitrothiazol-2-yl)benzoxazole]",58
3,"COc1cccnc1-c1cc(Cl)cc2nc(N3CCNC[C@@H]3C)oc12 [Example 79, (S)-5-Chloro-7-(3-methoxypyridin-2-yl)-2-(2-methylpiperazin-1-yl)benzoxazole]",53
4,"C[C@H]1CNCCN1c1nc2cc(Cl)cc(-c3ccc(F)cc3)c2o1 [Example 81, (S)-5-Chloro-7-(4-fluorophenyl)-2-(2-methylpiperazin-1-yl)benzoxazole]",68
5,"C[C@H]1CNCCN1c1nc2c(C(F)(F)F)c(Cl)cc(-c3ccccn3)c2o1 [Example 82, (S)-5-Chloro-2-(2-methylpiperazin-1-yl)-7-(pyridin-2-yl)-4-(trifluoromethyl)benzoxazole]",94
6,"C[C@H]1CNCCN1c1nc2c(C(F)(F)F)c(Cl)cc(-n3cccn3)c2o1 [Example 83, (S)-5-Chloro-2-(2-methylpiperazin-1-yl)-7-(1H-pyrazol-1-yl)-4-(trifluoromethyl)benzoxazole]",92
7,"C[C@H]1CNCCN1c1nc2c(C(F)(F)F)c(Cl)cc(-c3nccs3)c2o1 [Example 84, (S)-5-Chloro-2-(2-methylpiperazin-1-yl)-7-(thiazol-2-yl)-4-(trifluoromethyl)benzoxazole]",95
8,"C[C@H]1CNCCN1c1nc2cc(Cl)c(C(F)(F)F)c(-c3ccccn3)c2o1 [Example 85, (S)-5-Chloro-2-(2-methylpiperazin-1-yl)-7-(pyridin-2-yl)-6-(trifluoromethyl)benzoxazole]",26
9,"C[C@H]1CNCCN1c1nc2c(OC(F)(F)F)c(Cl)cc(-c3ccccn3)c2o1 [Example 86, (S)-5-Chloro-2-(2-methylpiperazin-1-yl)-7-(pyridin-2-yl)-4-(trifluoromethoxy)benzoxazole]",91
10,"C[C@H]1CNCCN1c1nc2c(OC(F)(F)F)c(Cl)cc(-c3nccs3)c2o1 [Example 87, (S)-5-Chloro-2-(2-methylpiperazin-1-yl)-7-(thiazol-2-yl)-4-(trifluoromethoxy)benzoxazole]",96
11,"C[C@H]1CNCCN1c1nc2c(OC(F)(F)F)c(Cl)cc(-n3cccn3)c2o1 [Example 88, (S)-5-Chloro-2-(2-methylpiperazin-1-yl)-7-(1H-pyrazol-1-yl)-4-(trifluoromethoxy)benzoxazole]",95
12,"C[C@H]1CNCCN1c1nc2c(F)c(F)cc(-c3ccccn3)c2o1 [Example 89, (S)-4,5-Difluoro-2-(2-methylpiperazin-1-yl)-7-(pyridin-2-yl)benzoxazole]",88
13,"C[C@H]1CNCCN1c1nc2c(F)c(F)cc(-c3nccs3)c2o1 [Example 90, (S)-4,5-Difluoro-2-(2-methylpiperazin-1-yl)-7-(thiazol-2-yl)benzoxazole]",96
14,"C[C@H]1CNCCN1c1nc2c(F)c(F)cc(-n3cccn3)c2o1 [Example 91, (S)-4,5-Difluoro-2-(2-methylpiperazin-1-yl)-7-(1H-pyrazol-1-yl)benzoxazole]",89
15,"C[C@H]1CNCCN1c1nc2cc(Cl)c(F)c(-c3ccccn3)c2o1 [Example 92, (S)-5-Chloro-6-fluoro-2-(2-methylpiperazin-1-yl)-7-(pyridin-2-yl)benzoxazole]",71
16,"C[C@H]1CNCCN1c1nc2cc(Cl)c(F)c(-c3nccs3)c2o1 [Example 93, (S)-5-Chloro-6-fluoro-2-(2-methylpiperazin-1-yl)-7-(thiazol-2-yl)benzoxazole]",95
17,"C[C@H]1CNCCN1c1nc2cc(Cl)c(F)c(-n3cccn3)c2o1 [Example 94, (S)-5-Chloro-6-fluoro-2-(2-methylpiperazin-1-yl)-7-(1H-pyrazol-1-yl)benzoxazole]",62
18,"CCCc1cc(Cl)cc2nc(N3CCNC[C@@H]3C)oc12 [Example 95, (S)-5-Chloro-2-(2-methylpiperazin-1-yl)-7-n-propylbenzoxazole]",71
19,"C[C@H]1CNCCN1c1nc2cc(Cl)cc(C(=O)N(C)C)c2o1 [Example 96, (S)-5-Chloro-7-dimethylaminocarbonyl-2-(2-methylpiperazin-1-yl)benzoxazole]",<10
20,"CCN(CC)C(=O)c1cc(Cl)cc2nc(N3CCNC[C@@H]3C)oc12 [Example 97, (S)-5-Chloro-7-diethylaminocarbonyl-2-(2-methylpiperazin-1-yl)benzoxazole]",10
21,"C[C@H]1CNCCN1c1nc2cc(Cl)cc(C(=O)NO)c2o1 [Example 98, (S)-5-Chloro-7-hydroxyaminocarbonyl-2-(2-methylpiperazin-1-yl)benzoxazole]",<10
22,"C[C@H]1CNCCN1c1nc2cc(Cl)cc(C(=O)O)c2o1 [Example 99, (S)-5-Chloro-7-carboxy-2-(2-methylpiperazin-1-yl)benzoxazole]",<10
23,"CNC(=O)c1cc(Cl)cc2nc(N3CCNC[C@@H]3C)oc12 [Example 100, (S)-5-Chloro-7-methylaminocarbonyl-2-(2-methylpiperazin-1-yl)benzoxazole]",16
24,"CCNC(=O)c1cc(Cl)cc2nc(N3CCNC[C@@H]3C)oc12 [Example 101, (S)-5-Chloro-7-ethylaminocarbonyl-2-(2-methylpiperazin-1-yl)benzoxazole]",27
25,"C[C@H]1CNCCN1c1nc2cc(F)cc(-c3ccccn3)c2o1 [Example 102, (S)-5-Fluoro-2-(2-methylpiperazin-1-yl)-7-(pyridin-2-yl)benzoxazole]",85
26,"C[C@H]1CNCCN1c1nc2cc(F)cc(-c3nccs3)c2o1 [Example 103, (S)-5-Fluoro-2-(2-methylpiperazin-1-yl)-7-(thiazol-2-yl)benzoxazole]",96
27,"C[C@H]1CNCCN1c1nc2cc(F)cc(-c3ncco3)c2o1 [Example 104, (S)-5-Fluoro-2-(2-methylpiperazin-1-yl)-7-(oxazol-2-yl)benzoxazole]",88
28,"C[C@H]1CNCCN1c1nc2cc(Cl)cc(-c3ncon3)c2o1 [Example 105, (S)-5-Chloro-2-(2-methylpiperazin-1-yl)-7-(1,2,4-oxadiazol-3-yl)benzoxazole]",61
29,"C[C@H]1CNCCN1c1nc2cc(Cl)cc(C3=NCCO3)c2o1 [Example 106, (S)-5-Chloro-7-(4,5-dihydro-oxazol-2-yl)-2-(2-methylpiperazin-1-yl)benzoxazole]",42
